Test results from ChEMBL document CHEMBL1201862, “PubChem BioAssay data set” (2004).
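Tested at 5 concentrations; 48 h exposure; 96-well plates; endpoints linearly interpolated, else capped at highest concentration. GI50 = concentration required for 50% inhibition of growth.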 Calls of active or inactive are those of the source. Cut-off read from the data, not from the text of the source: active = GI50 up to about 1.1 µM and inactive = higher.

Tests used:
Experiment in all cases: NCI anticancer screen, dose series, 48 h
MDA-MB-231 = system: MDA-MB-231
NCI-H23 = system: NCI-H23
A549 = system: A549
SF-295 = system: SF-295
PC-3 = system: PC-3
HOP-62 = system: HOP-62
MDA-MB-435 = system: MDA-MB-435
SR = system: SR
DU-145 = system: DU-145
TK-10 = system: TK-10
UACC-62 = system: UACC-62
UACC-257 = system: UACC-257
U-251 = system: U-251
IGROV-1 = system: IGROV-1
EKVX = system: EKVX
T47D = system: T47D
KM12 = system: KM12
RXF 393 = system: RXF 393
OVCAR-5 = system: OVCAR-5
LOX IMVI = system: LOX IMVI

Measured: GI50

Cc1cc2c(cc1-c1cc3c(cc1C)C(C(C)C)=C(O)C(=O)/C3=C\Nc1cccc3c(N)cccc13)/C(=C/Nc1cccc3c(N)cccc13)C(=O)C(O)=C2C(C)C
inactive: MDA-MB-231 > 100 µM | NCI-H23 > 100 µM | A549 59.4 µM | SF-295 > 100 µM | PC-3 79.8 µM | HOP-62 > 100 µM | MDA-MB-435 > 100 µM | SR 65.8 µM | DU-145 > 100 µM | TK-10 > 100 µM | UACC-62 > 100 µM | UACC-257 > 100 µM | U-251 49.1 µM | IGROV-1 > 100 µM | EKVX > 100 µM | T47D > 100 µM | KM12 > 100 µM | RXF 393 > 100 µM | OVCAR-5 > 100 µM | LOX IMVI > 100 µM

Cc1nn2c(=O)c([N+](=O)[O-])c(/C=C/c3ccco3)nc2s1
inactive: MDA-MB-231 63.4 µM | NCI-H23 50.5 µM | A549 53.5 µM | SF-295 91 µM | PC-3 68.2 µM | HOP-62 > 100 µM | MDA-MB-435 21.1 µM | SR 28.2 µM | DU-145 40.5 µM | TK-10 > 100 µM | UACC-62 65.3 µM | UACC-257 87.5 µM | U-251 29.4 µM | IGROV-1 51.8 µM | EKVX 26.4 µM | T47D 27.8 µM | KM12 39.2 µM | RXF 393 28.7 µM | OVCAR-5 73.1 µM | LOX IMVI 17.6 µM

COc1cccc(C2c3cc4c(cc3OC(Nc3ccccc3)C2C)OCO4)c1O (stereo not given)
inactive: MDA-MB-231 12.7 µM | NCI-H23 8.26 µM | A549 4.95 µM | SF-295 5.25 µM | PC-3 4.14 µM | HOP-62 12.9 µM | MDA-MB-435 2.15 µM | SR 3.66 µM | DU-145 15.4 µM | TK-10 15.8 µM | UACC-62 9.02 µM | UACC-257 10.9 µM | U-251 5.7 µM | IGROV-1 8.95 µM | EKVX 11.1 µM | T47D 12.7 µM | KM12 4.63 µM | RXF 393 5.05 µM | OVCAR-5 30.1 µM | LOX IMVI 5.21 µM
